In patent US20250236608A1, “EGFR INHIBITORS” (Blueprint Medicines Corporation, priority 2022, published 2025):

Columns and labels:
EGFR (d746-750) = EGFR (d746-750) (Homo sapiens (Human), UniProt P00533, DEL746-750); assay: Biochemical EGFR inhibition assay, EGFR (d746-750); conditions: Caliper mobility shift; 1.0 mM ATP or ATP Km; read-out: Enz EGFR_Exon19-del746-750 IC50
EGFR L858R = EGFR L858R (Homo sapiens (Human), UniProt P00533, L858R); assay: Biochemical EGFR inhibition assay, EGFR L858R; conditions: Caliper mobility shift; 1.0 mM ATP or ATP Km; read-out: Enz EGFR_L858R IC50
Chain of EGFR L858R (P00533 25-1210 L858R): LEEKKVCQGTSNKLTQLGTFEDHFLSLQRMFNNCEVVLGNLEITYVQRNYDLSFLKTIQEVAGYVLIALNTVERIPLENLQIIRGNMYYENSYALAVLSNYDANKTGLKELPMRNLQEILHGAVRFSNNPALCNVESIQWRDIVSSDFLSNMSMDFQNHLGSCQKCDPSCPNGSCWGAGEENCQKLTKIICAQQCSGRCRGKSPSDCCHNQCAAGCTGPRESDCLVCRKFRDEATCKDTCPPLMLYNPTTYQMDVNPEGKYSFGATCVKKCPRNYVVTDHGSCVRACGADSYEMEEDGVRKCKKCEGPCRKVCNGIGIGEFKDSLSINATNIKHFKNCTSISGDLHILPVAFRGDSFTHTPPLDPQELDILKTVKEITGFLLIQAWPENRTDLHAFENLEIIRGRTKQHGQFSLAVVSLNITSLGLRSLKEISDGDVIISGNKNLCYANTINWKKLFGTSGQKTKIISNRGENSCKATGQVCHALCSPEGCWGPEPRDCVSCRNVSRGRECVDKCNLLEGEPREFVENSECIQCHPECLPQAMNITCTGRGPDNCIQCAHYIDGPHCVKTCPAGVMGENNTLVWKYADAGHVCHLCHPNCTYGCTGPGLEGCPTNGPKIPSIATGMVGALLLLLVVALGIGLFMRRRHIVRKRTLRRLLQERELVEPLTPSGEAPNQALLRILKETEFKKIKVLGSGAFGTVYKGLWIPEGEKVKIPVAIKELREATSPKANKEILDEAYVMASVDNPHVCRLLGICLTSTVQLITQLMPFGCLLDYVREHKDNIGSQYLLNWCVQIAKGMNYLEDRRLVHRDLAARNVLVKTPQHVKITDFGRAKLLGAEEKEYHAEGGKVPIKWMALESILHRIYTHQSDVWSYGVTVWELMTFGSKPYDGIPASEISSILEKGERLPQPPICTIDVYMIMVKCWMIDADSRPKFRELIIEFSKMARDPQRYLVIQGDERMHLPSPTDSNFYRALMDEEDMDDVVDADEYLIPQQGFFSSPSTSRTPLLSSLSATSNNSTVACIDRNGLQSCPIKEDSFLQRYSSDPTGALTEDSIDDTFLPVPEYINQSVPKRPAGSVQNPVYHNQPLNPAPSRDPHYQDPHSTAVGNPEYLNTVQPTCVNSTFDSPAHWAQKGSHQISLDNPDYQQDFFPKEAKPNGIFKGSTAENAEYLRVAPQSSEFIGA

[1] = molecular target: pEGFR (Tyr1068) in PC-9 cells (Ex19Del) (Homo sapiens (Human), UniProt P00533, DEL746-750); assay: PC-9 pEGFR AlphaLISA assay; type: cell-based; conditions: 4 hours incubation, p-EGFR (Tyr1068) AlphaLISA, read-out: Ext pEGFR_PC-9 Ex19Del IC50
Chain of pEGFR (Tyr1068) in PC-9 cells (Ex19Del) (P00533 other isoform, or with tags, fused parts or gaps del 746-750): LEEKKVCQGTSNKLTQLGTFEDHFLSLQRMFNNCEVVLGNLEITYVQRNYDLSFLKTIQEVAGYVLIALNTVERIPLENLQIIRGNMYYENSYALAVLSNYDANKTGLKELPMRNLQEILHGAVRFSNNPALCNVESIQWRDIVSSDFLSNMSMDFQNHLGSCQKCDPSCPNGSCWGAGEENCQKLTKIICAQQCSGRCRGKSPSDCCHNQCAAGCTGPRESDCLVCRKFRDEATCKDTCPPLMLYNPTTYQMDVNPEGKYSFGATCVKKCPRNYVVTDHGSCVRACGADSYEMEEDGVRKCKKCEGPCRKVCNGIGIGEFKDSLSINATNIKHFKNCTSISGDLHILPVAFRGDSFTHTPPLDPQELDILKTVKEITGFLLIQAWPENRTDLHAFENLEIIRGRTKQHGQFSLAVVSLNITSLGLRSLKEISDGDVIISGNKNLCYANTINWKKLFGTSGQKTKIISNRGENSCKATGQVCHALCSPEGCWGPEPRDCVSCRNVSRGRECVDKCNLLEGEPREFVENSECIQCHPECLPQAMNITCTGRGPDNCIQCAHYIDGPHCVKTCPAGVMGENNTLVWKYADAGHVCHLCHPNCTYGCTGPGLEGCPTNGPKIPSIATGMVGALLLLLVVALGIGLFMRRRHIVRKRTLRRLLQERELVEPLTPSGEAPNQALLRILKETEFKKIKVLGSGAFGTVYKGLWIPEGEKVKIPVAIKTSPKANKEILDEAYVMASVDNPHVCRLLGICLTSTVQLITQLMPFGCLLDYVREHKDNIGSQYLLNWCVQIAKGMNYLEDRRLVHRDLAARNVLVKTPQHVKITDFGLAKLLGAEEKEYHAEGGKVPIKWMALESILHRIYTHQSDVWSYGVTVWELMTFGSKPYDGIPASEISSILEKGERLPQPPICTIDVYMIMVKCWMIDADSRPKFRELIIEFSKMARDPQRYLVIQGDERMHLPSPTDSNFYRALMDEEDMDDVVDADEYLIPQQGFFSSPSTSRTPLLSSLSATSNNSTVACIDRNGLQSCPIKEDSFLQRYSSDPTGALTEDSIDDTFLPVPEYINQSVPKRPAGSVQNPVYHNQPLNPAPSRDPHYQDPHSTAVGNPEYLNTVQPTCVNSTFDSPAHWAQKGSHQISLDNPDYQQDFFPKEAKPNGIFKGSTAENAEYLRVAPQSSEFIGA
In short: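 Compounds are added in ten 4-fold dilutions to adherent cells grown in serum-containing (10% FBS) phenol-free DMEM and left for 4 hours at 37° C. Phosphorylated receptor in lysates is quantified by bead-based AlphaLISA. IC50 values derive from inhibition plotted against log dose.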

Chain of EGFR (d746-750) (P00533 other isoform, or with tags, fused parts or gaps del 1-694/del 746-750 limits assumed): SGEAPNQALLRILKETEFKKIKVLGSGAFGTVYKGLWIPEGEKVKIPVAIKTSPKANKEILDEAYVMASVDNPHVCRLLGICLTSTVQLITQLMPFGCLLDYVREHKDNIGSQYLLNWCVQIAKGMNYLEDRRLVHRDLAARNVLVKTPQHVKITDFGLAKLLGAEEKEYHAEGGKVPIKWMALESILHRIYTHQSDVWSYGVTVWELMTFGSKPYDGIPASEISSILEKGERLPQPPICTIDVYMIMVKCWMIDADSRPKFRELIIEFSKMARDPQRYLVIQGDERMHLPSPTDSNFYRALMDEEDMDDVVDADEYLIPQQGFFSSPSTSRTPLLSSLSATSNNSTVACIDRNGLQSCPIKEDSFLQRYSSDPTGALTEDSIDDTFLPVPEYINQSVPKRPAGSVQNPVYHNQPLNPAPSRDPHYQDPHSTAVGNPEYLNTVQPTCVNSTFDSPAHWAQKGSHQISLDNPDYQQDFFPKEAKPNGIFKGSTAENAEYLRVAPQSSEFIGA

IC50 (EGFR (d746-750)) | IC50 (EGFR L858R) | IC50 [1] | Structure (SMILES)
1 nM | 1.6 nM | 3 nM | CCOc1cc2ncnc(-c3cn(CC(F)F)nc3-c3ccccc3)c2cc1CO [Example 123, (4-(1-(2,2-difluoroethyl)-3-phenyl-1H-pyrazol-4-yl)-7-ethoxyquinazolin-6-yl)methanol]
1.2 nM | 1.7 nM | 4.8 nM | COc1cc2ncnc(-c3cn(C)nc3-c3ccccc3)c2cc1O[C@@H](C)C1COC1 [Example 22, (S)-7-methoxy-4-(1-methyl-3-phenyl-1H-pyrazol-4-yl)-6-(1-(oxetan-3-yl)ethoxy)quinazoline]
1.6 nM | 2.9 nM | 11.1 nM | CCOc1cc2ncnc(-c3cn(C)nc3-c3ccccc3)c2cc1OC(=O)N1CCO[C@H](C)C1 [Example 73, 7-ethoxy-4-(1-methyl-3-phenyl-1H-pyrazol-4-yl)quinazolin-6-yl (R)-2-methylmorpholine-4-carboxylate]
6.4 nM | 13.1 nM | 9.8 nM | CCOc1cc2ncnc(-c3cn(C)nc3-c3ccccc3)c2cc1OC1CCN(C)CC1 [Example 9, 7-ethoxy-4-(1-methyl-3-phenyl-1H-pyrazol-4-yl)-6-((1-methylpiperidin-4-yl)oxy)quinazoline]
2.9 nM | 9.6 nM | 43.9 nM | COc1cc2ncnc(-c3cn(C)nc3-c3ccccc3)c2nc1O[C@@H](C)c1cnnn1C [Example 42, (S)-7-methoxy-6-(1-(1-methyl-1H-1,2,3-triazol-5-yl)ethoxy)-4-(1-methyl-3-phenyl-1H-pyrazol-4-yl)pyrido[3,2-d]pyrimidine]
1.1 nM | 2.6 nM | 4.2 nM | COc1cc2ncnc(-c3cn(C)nc3-c3ccccc3)c2cc1NC(=O)[C@@]1(C)CCCO1 (single isomer, unassigned) [Example 259, (R)—N-(7-methoxy-4-(1-methyl-3-phenyl-1H-pyrazol-4-yl)quinazolin-6-yl)-2-methyltetrahydrofuran-2-carboxamide or (S)—N-(7-methoxy-4-(1-methyl-3-phenyl-1H-pyrazol-4-yl)quinazolin-6-yl)-2-methyltetrahydrofuran-2-carboxamide]
0.6 nM | 1 nM | 1 nM | COC(=O)Nc1cc2c(-c3cn(C)nc3-c3ccccc3)ncnc2cc1OC [Example 157, methyl (7-methoxy-4-(1-methyl-3-phenyl-1H-pyrazol-4-yl)quinazolin-6-yl)carbamate]
1.7 nM | 3.2 nM | 3.4 nM | COc1cc2ncnc(-c3cn(C)nc3-c3ccccc3)c2cc1NC(=O)C1(C)CCC1 [Example 348, N-(7-methoxy-4-(1-methyl-3-phenyl-1H-pyrazol-4-yl)quinazolin-6-y1)-1-methylcyclobutane-1-carboxamide]
1.8 nM | 2.7 nM | 3.8 nM | COc1cc2ncnc(-c3cn(C)nc3-c3ccccc3F)c2cc1NC(=O)[C@]12C[C@H]1CN(C)C2 (single isomer, unassigned) [Example 255, (1R,5R)—N-(4-(3-(2-fluorophenyl)-1-methyl-1H-pyrazol-4-yl)-7-methoxyquinazolin-6-yl)-3-methyl-3-azabicyclo[3.1.0]hexane-1-carboxamide or (1S,5S)—N-(4-(3-(2-fluorophenyl)-1-methyl-1H-pyrazol-4-yl)-7-methoxyquinazolin-6-yl)-3-methyl-3-azabicyclo[3.1.0]hexane-1-carboxamide]
0.7 nM | 1.4 nM | 1.6 nM | CCn1cc(-c2ncnc3cc(OC(F)F)c(NC(=O)C4CC4)cc23)c(-c2ccccc2)n1 [Example 302, N-(7-(difluoromethoxy)-4-(1-ethyl-3-phenyl-1H-pyrazol-4-yl)quinazolin-6-yl)cyclopropanecarboxamide]
0.7 nM | 1.7 nM | 3.2 nM | COc1cc2ncnc(-c3cn(C)nc3-c3ccc(F)cc3F)c2cc1N1CCOCC1 [Example 166, 4-(4-(3-(2,4-difluorophenyl)-1-methyl-1H-pyrazol-4-yl)-7-methoxyquinazolin-6-yl)morpholine]
1.3 nM | 2.1 nM | 3.1 nM | COc1cc2ncnc(-c3cn(C)nc3-c3ccccc3)c2cc1NC(=O)N1CCO[C@@H]2C[C@@H]21 (stereo in doubt) [Example 185, N-[7-methoxy-4-(1-methyl-3-phenyl-1H-pyrazol-4-yl)quinazolin-6-yl]-2-oxa-5-azabicyclo[4.1.0]heptane-5-carboxamide]
0.9 nM | 1.4 nM | 0.6 nM | COc1cc2ncnc(-c3c[nH]nc3-c3ccccc3)c2cc1[C@@H]1CCCCO1 (single isomer, unassigned) [Example 132, (S)-7-methoxy-4-(3-phenyl-1H-pyrazol-4-yl)-6-(tetrahydro-2H-pyran-2-yl)quinazoline or (R)-7-methoxy-4-(3-phenyl-1H-pyrazol-4-yl)-6-(tetrahydro-2H-pyran-2-yl)quinazoline]
9.8 nM | 109 nM | 12.1 nM | CCOc1cc2ncnc(-c3cn(C)nc3-c3ccccc3)c2cc1N1CCOCC1=O [Example 267, 4-(7-ethoxy-4-(1-methyl-3-phenyl-1H-pyrazol-4-yl)quinazolin-6-yl)morpholin-3-one]
0.9 nM | 2.4 nM | 2.5 nM | CCOc1cc2ncnc(-c3cn(C)nc3-c3ccc(F)cc3)c2nc1NC(=O)[C@@]12C[C@@H]1CN(C)C2 (single isomer, unassigned) [Example 375, (1S,5S)—N-(7-ethoxy-4-(3-(4-fluorophenyl)-1-methyl-1H-pyrazol-4-yl)pyrido[3,2-d]pyrimidin-6-yl)-3-methyl-3-azabicyclo[3.1.0]hexane-1-carboxamide or (1R,5R)—N-(7-ethoxy-4-(3-(4-fluorophenyl)-1-methyl-1H-pyrazol-4-yl)pyrido[3,2-d]pyrimidin-6-yl)-3-methyl-3-azabicyclo[3.1.0]hexane-1-carboxamide]
300 nM | 748 nM | 1710 nM | Cn1cc(-c2ncnc3cc(C(F)(F)F)c(NC(=O)C45COCC4C5)nc23)c(-c2ccccc2)n1 (stereo not drawn) [Example 483, N-(4-(1-methyl-3-phenyl-1H-pyrazol-4-yl)-7-(trifluoromethyl)pyrido[3,2-d]pyrimidin-6-yl)-3-oxabicyclo[3.1.0]hexane-1-carboxamide]
1 nM | 1.7 nM | 2 nM | COc1cc2ncnc(-c3cn(C)nc3-c3ccccc3)c2cc1NC(=O)c1cccnc1 [Example 325, N-(7-methoxy-4-(1-methyl-3-phenyl-1H-pyrazol-4-yl)quinazolin-6-yl)nicotinamide]
1.5 nM | 2.8 nM | 3.3 nM | COc1cc2ncnc(-c3cn(C)nc3-c3ccc(F)cc3)c2cc1NC(=O)C1(CN(C)C)CC1 [Example 211, 1-((dimethylamino)methyl)-N-(4-(3-(4-fluorophenyl)-1-methyl-1H-pyrazol-4-yl)-7-methoxyquinazolin-6-yl)cyclopropane-1-carboxamide]
1.4 nM | 1.7 nM | 0.2 nM | CCOc1cc2ncnc(-c3cn(C)nc3-c3ccccc3)c2nc1NC1CCOCC1 [Example 158, 7-ethoxy-4-(1-methyl-3-phenyl-1H-pyrazol-4-yl)-N-(tetrahydro-2H-pyran-4-yl)pyrido[3,2-d]pyrimidin-6-amine]
1.6 nM | 2.9 nM | 3 nM | CCn1cc(-c2ncnc3cc(OC)c(NC(=O)[C@]45COC[C@H]4C5)cc23)c(-c2ccc(F)cc2)n1 [Example 335, (1S,5S)—N-(4-(1-ethyl-3-(4-fluorophenyl)-1H-pyrazol-4-yl)-7-methoxyquinazolin-6-yl)-3-oxabicyclo[3.1.0]hexane-1-carboxamide]
1.8 nM | 3.3 nM | 6.5 nM | Cn1cc(-c2ncnc3cc(OC(F)F)c(NC(=O)C4CC4)cc23)c(-c2ccccc2)n1 [Example 279, N-(7-(difluoromethoxy)-4-(1-methyl-3-phenyl-1H-pyrazol-4-yl)quinazolin-6-yl)cyclopropanecarboxamide]

Structure (SMILES) | IC50 (EGFR (d746-750)) | IC50 (EGFR L858R) | IC50 [1]
COc1cc2ncnc(-c3cn(C)nc3-c3ccccc3)c2cc1OC(=O)N1[C@@H](C)CNC[C@@H]1C [Example 88, 7-methoxy-4-(1-methyl-3-phenyl-1H-pyrazol-4-yl)quinazolin-6-yl (2S,6S)-2,6-dimethylpiperazine-1-carboxylate] | 1.9 nM | 3.2 nM | 7.5 nM
COc1cc2ncnc(-c3cn(C)nc3-c3ccccc3)c2cc1OC(=O)N1[C@@H](C)CN(C)C[C@@H]1C [Example 79, 7-methoxy-4-(1-methyl-3-phenyl-1H-pyrazol-4-yl)quinazolin-6-yl (2S,6S)-2,4,6-trimethylpiperazine-1-carboxylate] | 3.1 nM | 6.5 nM | 9.6 nM
COc1cc2ncnc(-c3cn(C)nc3-c3ccccc3)c2cc1OC(=O)N1[C@H](C)CNC[C@@H]1C [Example 87, 7-methoxy-4-(1-methyl-3-phenyl-1H-pyrazol-4-yl)quinazolin-6-yl (2R,6S)-2,6-dimethylpiperazine-1-carboxylate] | 2.1 nM | 4.9 nM | 5.7 nM
COc1cc2ncnc(-c3cn(C)nc3-c3ccccc3)c2cc1OC(=O)N1CCNCC1(C)C [Example 86, 7-methoxy-4-(1-methyl-3-phenyl-1H-pyrazol-4-yl)quinazolin-6-yl 2,2-dimethylpiperazine-1-carboxylate] | 2.5 nM | 5 nM | 5.8 nM
